The text below walks through data of US10793544B2, “Disubstituted and trisubstituted 1,2,3-triazoles as Wnt inhibitors” (The Board of Regents of the University of Texas System, priority 2016, dated 2020).

Test [1] relates to Axin2 expression. Particulars: DLD-1 cells, exposure for 2 h; cited from earlier work.
Test [2] has as its system Dvl2/3 phosphorylation. Kind of test: Western blot for biochemical markers of Wnt signaling in Hela cells: Dvl2/3 phosphorylation. The settings on record: incubated 24 h, Western blot (FIG. 2). The class given is cell-based. An excerpt: (§1) Cell lysates were then subjected to Western blot analysis for biochemical markers of Wnt signaling (LRP6 and Dvl2/3 phosphorylation).
(§2) Dishevelled (Dvl) phosphorylation is associated with both canonical and non-canonical Wnt signaling pathways.

Test [3] concerns LRP6 phosphorylation. Kind of test: Western blot for biochemical markers of Wnt signaling in Hela cells: LRP6 phosphorylation. Particulars: incubated 24 h, Western blot (FIG. 2). The class given is cell-based.
Source text: as §1, §2

Test [4] relates to Wnt/b-catenin pathway activity in L-Wnt-STF cells. Kind of test: Suppression of Wnt signaling in L-Wnt-STF cells (Firefly luciferase reporter). The class given is cell-based. How it is done:
Chemical synthesis is described below in Example 3. L-Wnt-STF cells (Chen, et al., 2009) were seeded into each well of a white opaque 96-well plate and compounds added immediately thereafter. Luciferase activities (Firefly luciferase for Wnt/b-catenin pathway activity and Renilla luciferase activity as an irrelevant cell signal) were measured using a previously reported protocol (Wang, et al., 2013).
Additional IWPs to suppress Wnt signaling in L-Wnt-STF cells were synthesized and tested for their ability to suppress Wnt signaling as described above. The relevant data for some of the compounds are shown below in Table 1.

Structures are written as SMILES.

For `O=C(Nc1cccc2cccnc12)c1ccc(N2C(=O)[C@@H]3[C@H](C2=O)[C@@H]2C=C[C@H]3C2)cc1` [IWR-1], the “expression of Axin2” value in test [1] is recorded as “decrease”.

Take `O=C(Cn1nnc(-c2ccncc2)c1-c1ccccc1)Nc1ccc(-c2ccccc2)cn1` [IWP-O1, 2-(5-Phenyl-4-(pyridin-4-yl)-1H-1,2,3-triazol-1-yl)-N-(5-phenylpyridin-2-yl)acetamide]: in test [2], the “phosphorylation of Dvl2/3” value is on record as “effectively suppressed”. Also, the “phosphorylation of LRP6” value in test [3] is listed as “suppressed”.

`Cc1cc(-n2nnc(CC(=O)Nc3ccc(-c4ccccc4)cn3)c2-c2ccccc2)ccn1`: in test [4] (alternative substitution pattern of the triazole), the EC50 was 0.1 nM. This counts as sub-nanomolar.

Molecule `Cc1cc(-c2ncc(CC(=O)Nc3ccc(-c4cnccn4)cn3)cc2C)ccn1` [LGK974, reference compound] displayed an EC50 in test [4] (Table 1 triazole substituent screening, L-Wnt-STF cells, normalized to LGK974 control) of 0.2 nM.
